Results from US20110053966A1, “SYNERGISTIC FUNGICIDAL COMPOSITIONS CONTAINING A 5-FLUOROPYRIMIDINE DERIVATIVE FOR FUNGAL CONTROL IN CEREALS” (DOW AGROSCIENCES LLC, priority 2009, published 2011).

Assays:
[1] = system: Septoria tritici (SEPTTR); test: 1-day protectant test (1DP) vs. leaf blotch of wheat; format: in vivo; conditions: Zymoseptoria tritici, read-out: % DC Obs (percent disease control observed); for pest or weed control at 1.5 g/ha: application rate 1.5 g ai/Ha, SC formulation, track sprayer; for pest or weed control at 0.2 ppm: application rate 0.2 ppm
Experimental: (§1) Evaluation of Curative and Protectant Activity of Fungicide Mixtures vs. Leaf Blotch of Wheat (Mycosphaerella graminicola; anamorph: Septoria tritici; Bayer code: SEPTTR)
(§2) Wheat plants (variety Yuma) were grown from seed in a greenhouse in plastic pots with a surface area of 27.5 square centimeters (cm2) containing 50% mineral soil/50% soil-less Metro mix, with 8-12 seedlings per pot. The plants were employed for testing when the first leaf was fully emerged, which typically took 7 to 8 days after planting. Test plants were inoculated with an aqueous spore suspension of Septoria tritici either 3-days prior to (3-day curative test; 3DC) or 1-day after fungicide treatments (1-day protectant test; 1DP). After inoculation the plants were kept at 100% relative humidity (one day in a dark dew chamber followed by two days in a lighted mist chamber) to permit spores to germinate and infect the leaf. The plants were then transferred to a greenhouse until disease symptoms were fully expressed.
(§3) For the mixture studies with compound of Formula IA: Treatments consisted of fungicides, including a compound of Formula IA, epoxiconazole, prothioconazole, azoxystrobin, pyraclostrobin, penthiopyrad, isopyrazam, bixafen, boscalid, prochloraz, chlorothalonil, and isobutyric acid (3S,6S,7R,8R)-8-benzyl-3-[(3-isobutyryloxymethoxy-4-methoxypyridine-2-carbonyl)-amino]-6-methyl-4,9-dioxo-[1,5]dioxonan-7-yl ester (compound A), applied either individually or as two-way mixtures with a compound of Formula IA. Technical grades of materials were dissolved in acetone to make stock solutions, which were then used to perform three-fold dilutions in acetone either for each individual fungicide component or for the two-way mixtures. Desired fungicide rates were obtained after mixing dilutions with nine volumes of water containing 110 parts per million (ppm) Triton X-100. Ten mL fungicide solutions were applied onto six pots of plants using an automated booth sprayer, which utilized two 6218-1/4 JAUPM spray nozzles operating at 20 pounds per square inch (psi) set at opposing angles to cover both leaf surfaces. All sprayed plants were allowed to air dry prior to further handling. Control plants were sprayed in the same manner with the solvent blank.
(§4) For the mixture studies with compound of Formula IB: Compound IB and the compound B or their two-way mixtures were diluted in three-fold series using suspension concentrate (SC) formulations in 0.1% Trycol 5941. Spray solutions were applied onto plants using a track sprayer with an application volume of 200 Liters/hectare (L/Ha).
(§5) When disease reached 80 to 100% on the control plants, infection levels were assessed on treated plants visually and scored on a scale of 0 to 100 percent. Percentage of disease control was then calculated using the ratio of disease on treated plants relative to control plants.
(§6) Colby's equation was used to determine the fungicidal effects expected from the mixtures. (See Colby, S. R. Calculation of the synergistic and antagonistic response of herbicide combinations. Weeds 1967, 15, 20-22.)
(§7) The following equation was used to calculate the expected activity of mixtures containing two active ingredients, A and B:
(§8) A=observed efficacy of active component A at the same concentration as used in the mixture;
(§9) B=observed efficacy of active component B at the same concentration as used in the mixture.

[2] = system: Septoria tritici (SEPTTR); test: 3-day curative test (3DC) vs. leaf blotch of wheat; format: in vivo; conditions: Zymoseptoria tritici, read-out: % DC Obs (percent disease control observed); for pest or weed control at 1.5 g/ha: application rate 1.5 g ai/Ha, SC formulation, track sprayer; for pest or weed control at 0.2 ppm: application rate 0.2 ppm
Experimental: as §1, §2, §3, §4, §5, §6, §7, §8, §9

[3] = 1DP SEPTTR, application rate 0.6 ppm
[4] = 1DP SEPTTR, application rate 1.8 ppm
[5] = 1DP SEPTTR, application rate 5.6 ppm
[6] = 3DC SEPTTR, application rate 0.6 ppm
[7] = 3DC SEPTTR, application rate 1.8 ppm
[8] = 3DC SEPTTR, application rate 5.6 ppm

`COc1ccnc(C(=O)N[C@H]2COC(=O)[C@H](Cc3ccccc3)[C@@H](OC(=O)C(C)C)[C@H](C)OC2=O)c1OCOC(=O)C(C)C` [A, Isobutyric acid (3S,6S,7R,8R)-8-benzyl-3-[(3-isobutyryloxymethoxy-4-methoxy-pyridine-2-carbonyl)-amino]-6-methyl-4,9-dioxo-[1,5]dioxonan-7-yl ester] was tested, and the pest or weed control at 0.45 ppm [1] was 3%, the pest or weed control at 1.35 ppm [1] was 80% and the pest or weed control at 0.45 ppm [2] was 22%. It also gave a pest or weed control at 1.35 ppm [2] of 52%.
Work on `CO/C=C(/C(=O)OC)c1ccccc1Oc1cc(Oc2ccccc2C#N)ncn1` [Azoxystrobin, methyl (αE)-2-[[6-(2-cyanophenoxy)-4-pyrimidinyl]oxy]-α-(methoxymethylene)benzeneacetate] yielded a pest or weed control at 0.6 ppm [1, 3] of 3%, a pest or weed control at 1.8 ppm [1, 4] of 3% and a pest or weed control at 5.6 ppm [1, 5] of 33%. For the same molecule, the pest or weed control at 0.6 ppm [2, 6] was 10%, the pest or weed control at 1.8 ppm [2, 7] was 14% and the pest or weed control at 5.6 ppm [2, 8] was 20%.
`Fc1cc(Oc2cc(C(F)(F)F)ccn2)ccc1CCNc1ncnc2c(F)ccc(F)c12` [B, (5,8-Difluoroquinazolin-4-yl)-{2-[2-fluoro-4-(4-trifluoromethylpyridin-2-yloxy)-phenyl]-ethyl}-amine] gave a pest or weed control at 1.5 g/ha ([1]; 1DP SEPTTR) of 36% and a pest or weed control at 1.5 g/ha ([2]; 3DC SEPTTR) of 41%.
`Cn1cc(C(=O)Nc2ccc(F)cc2-c2ccc(Cl)c(Cl)c2)c(C(F)F)n1` [Bixafen, N-(3′,4′-dichloro-5-fluoro[1,1′-biphenyl]-2-yl)-3-(difluoromethyl)-1-methyl-1H-pyrazole-4-carboxamide] was tested, and the pest or weed control at 0.2 ppm ([1]; 1DP SEPTTR) was 3%, the pest or weed control at 0.6 ppm [1, 3] was 7% and the pest or weed control at 1.8 ppm [1, 4] was 12%. For the same molecule, the pest or weed control at 0.2 ppm ([2]; 3DC SEPTTR) was 6%, the pest or weed control at 0.6 ppm [2, 6] was 4% and the pest or weed control at 1.8 ppm [2, 7] was 14%.
`O=C(Nc1ccccc1-c1ccc(Cl)cc1)c1cccnc1Cl` [Boscalid, 2-chloro-N-(4′-chloro[1,1′-biphenyl]-2-yl)-3-pyridinecarboxamide] showed a pest or weed control at 1.8 ppm [1, 4] of 5%, a pest or weed control at 5.6 ppm [1, 5] of 30% and a pest or weed control at 1.8 ppm [2, 7] of 12%. The pest or weed control at 5.6 ppm [2, 8] was 34%.
`N#Cc1c(Cl)c(Cl)c(Cl)c(C#N)c1Cl` [Chlorothalanil, 2,4,5,6-tetrachloro-1,3-benzenedicarbonitrile] gave a pest or weed control at 13.5 ppm ([1]; 1DP SEPTTR, application rate 13.5 ppm) of 0%, a pest or weed control at 42 ppm ([1]; 1DP SEPTTR, application rate 42 ppm) of 2% and a pest or weed control at 125 ppm ([1]; 1DP SEPTTR, application rate 125 ppm) of 0%. For the same molecule, the pest or weed control at 13.5 ppm ([2]; 3DC SEPTTR, application rate 13.5 ppm) was 4%, the pest or weed control at 42 ppm ([2]; 3DC SEPTTR, application rate 42 ppm) was 4% and the pest or weed control at 125 ppm ([2]; 3DC SEPTTR, application rate 125 ppm) was 6%.
Molecule `Cc1ccc(COc2ncc(F)c(N)n2)cc1` [Compound IA] has a pest or weed control at 0.03 ppm ([1]; 1DP SEPTTR, application rate 0.03 ppm) of 2%, a pest or weed control at 0.1 ppm ([1]; 1DP SEPTTR, application rate 0.1 ppm) of 3% and a pest or weed control at 0.3 ppm ([1]; 1DP SEPTTR, application rate 0.3 ppm) of 0%. For the same molecule, the pest or weed control at 0.9 ppm ([1]; 1DP SEPTTR, application rate 0.9 ppm) was 22%, the pest or weed control at 2.8 ppm ([1]; 1DP SEPTTR, application rate 2.8 ppm) was 85% and the pest or weed control at 8.3 ppm ([1]; 1DP SEPTTR, application rate 8.3 ppm) was 98%. For the same molecule, the pest or weed control at 0.03 ppm ([2]; 3DC SEPTTR, application rate 0.03 ppm) was 2%, the pest or weed control at 0.1 ppm ([2]; 3DC SEPTTR, application rate 0.1 ppm) was 4% and the pest or weed control at 0.3 ppm ([2]; 3DC SEPTTR, application rate 0.3 ppm) was 10%. For the same molecule, the pest or weed control at 0.9 ppm ([2]; 3DC SEPTTR, application rate 0.9 ppm) was 44%, the pest or weed control at 2.8 ppm ([2]; 3DC SEPTTR, application rate 2.8 ppm) was 94% and the pest or weed control at 8.3 ppm ([2]; 3DC SEPTTR, application rate 8.3 ppm) was 100%.
With `Nc1nc(OCc2ccc(F)cc2)ncc1F` [Compound IB] the pest or weed control at 1.5 g/ha ([1]; 1DP SEPTTR) was 46% and the pest or weed control at 1.5 g/ha ([2]; 3DC SEPTTR) was 74%.
For `Fc1ccc([C@]2(Cn3cncn3)O[C@H]2c2ccccc2Cl)cc1` [Epoxiconazole, re1-1-[[(2R,3S)-3-(2-chlorophenyl)-2-(4-fluorophenyl)oxiranyl]methyl]-1H-1,2,4-triazole], the pest or weed control at 0.125 ppm ([1]; 1DP SEPTTR, application rate 0.125 ppm) was 2%, the pest or weed control at 0.375 ppm ([1]; 1DP SEPTTR, application rate 0.375 ppm) was 83% and the pest or weed control at 0.125 ppm ([2]; 3DC SEPTTR, application rate 0.125 ppm) was 18%. For the same molecule, the pest or weed control at 0.375 ppm ([2]; 3DC SEPTTR, application rate 0.375 ppm) was 46%.
Molecule `CC(C)C1C2CCC1c1c(NC(=O)c3cn(C)nc3C(F)F)cccc12` (stereo not drawn) [Isopyrazam, 3-(difluoromethyl)-1-methyl-N-[1,2,3,4-tetrahydro-9-(1-methylethyl)-1,4-methanonaphthalen-5-yl]-1H-pyrazole-4-carboxamide] has a pest or weed control at 0.6 ppm [1] of 15%, a pest or weed control at 1.8 ppm [1] of 23% and a pest or weed control at 0.6 ppm [2] of 10%. It also gave a pest or weed control at 1.8 ppm [2] of 18%.
`CC(C)CC(C)c1sccc1NC(=O)c1cn(C)nc1C(F)(F)F` (stereo not drawn) [Penthiopyrad, N-[2-(1,3-dimethylbutyl)-3-thienyl]-1-methyl-3-(trifluoromethyl)-1H-pyrazole-4-carboxamide] showed a pest or weed control at 0.2 ppm ([1]; 1DP SEPTTR) of 2%, a pest or weed control at 0.6 ppm [1, 3] of 10% and a pest or weed control at 1.8 ppm [1, 4] of 17%. For the same molecule, the pest or weed control at 0.2 ppm ([2]; 3DC SEPTTR) was 8%, the pest or weed control at 0.6 ppm [2, 6] was 4% and the pest or weed control at 1.8 ppm [2, 7] was 4%.
`CCCN(CCOc1c(Cl)cc(Cl)cc1Cl)C(=O)n1ccnc1` [Prochloraz, N-propyl-N-[2-(2,4,6-trichlorophenoxy)ethyl]-1H-imidazole-1-carboxamide] gave a pest or weed control at 1.8 ppm [1] of 10%, a pest or weed control at 5.6 ppm [1] of 33% and a pest or weed control at 1.8 ppm [2] of 24%. For the same molecule, the pest or weed control at 5.6 ppm [2] was 22%.
`OC(Cc1ccccc1Cl)(Cn1[nH]cnc1=S)C1(Cl)CC1` (stereo not drawn) [Prothioconazole, 2-[2-(1-chlorocyclopropyl)-3-(2-chlorophenyl)-2-hydroxypropyl]-1,2-dihydro-3H-1,2,4-triazole-3-thione] gave a pest or weed control at 0.6 ppm [1, 3] of 2%, a pest or weed control at 1.8 ppm [1, 4] of 2% and a pest or weed control at 5.6 ppm [1, 5] of 25%. For the same molecule, the pest or weed control at 0.6 ppm [2, 6] was 10%, the pest or weed control at 1.8 ppm [2, 7] was 8% and the pest or weed control at 5.6 ppm [2, 8] was 20%.
